Data set [1] relates to Agrobacterium tumefaciens. How it is done:
(§1) Growth inhibition assays were performed using the peptides of Example 1 and the Gram positive microorganisms Micrococcus luteus and Bacillus megaterium, and the Gram negative microorganisms, Escherichia coli D22, Agrobacterium tumefaciens, and Salmonella typhimurium. Anti-bacterial assays were performed in sterilized 96-well plates (Nunc F96 microtiter plates) with a final volume of 100 μl as described in Bulet (1996), cited above. Briefly, 90 μl of a suspension of a midlogarithmic phase bacterial culture at an initial 600 nm UV absorbence of 0.001 in Luria-Bertani rich nutrient medium was added to 10 μl of serially diluted peptides in sterilized water. The final peptide concentrations ranged between 0.15 and 80 μM. The plates were incubated at 30° C. for 24 hours with gentle shaking, and the growth inhibition was measured by recording the increase of the UV absorbence at 600 nm on an SLT Labinstruments 400 ATC microplate reader. The experiments were conducted over a 7-month period.

For a further data set, the system named is Bacillus megaterium. How it is done:
as §1

In another data set the test system is Escherichia coli D22. The following applies: read-out: IC50 in μM against Escherichia coli D22; 30° C., 24 hours; for Peptide 22 original assay (a). How it is done:
as §1

In a further data set the test system is Micrococcus luteus. How it is done: as §1
A further data set concerns Salmonella typhimurium. How it is done: as §1
For data set [2] the following is noted: mouse serum, 45-minute digestion, MALDI-MS peak height.
Procedure: (§2) Owing to the fact that the use of diluted serum increases peptide recovery as well as retards the reaction kinetics to a manageable rate, the experiments were conducted using 25% aqueous sera.
(§3) For serum stability studies, 10 μl of an aqueous peptide stock solution containing about 0.8 mg/ml peptide was added to 200 μl 25% aqueous pooled mouse or human serum (Sigma, St. Louis, Mo.), according to the process described in M. F. Powell et al, Pharmacol Res, 10: 1268–1273 (1993). The peptide-serum mixture was thermostated at 37° C. After 0 minutes, 45 minutes, 2 hours and 4 hours, three samples of each peptide were taken and precipitated by the addition of 40 μl 15% aqueous trichloroacetic acid. The samples were stored at 4° C. for 20 minutes and centrifuged. The peptides and some remaining serum proteins were recovered in the supernatant after the trichloroacetic acid precipitation. The supernatants were immediately frozen on dry-ice and 220 μl of each were analyzed on RP-HPLC. A mouse serum and two different batches of the same SIGMA catalog number of human sera (human 1, approximately 1 year old, and human 2, approximately 1 month old) were also used.
(§4) The lyophilized samples were redissolved in 0.1 aqueous TFA and submitted for matrix assisted laser desorption/ionization (MALDI-MS).
(§5) The missing residues are indicated (e.g—C2 means that the C-terminal two residues are cleaved off). […] In Table 4, the relative amounts of the degradation products are estimated based on the MALDI-MS peak heights. 0=not detected; 1=very weak (below 5000), 2=weak (5–10000), 3=medium (10–15000), 4=strong (15000-uncleaved molecular ion at 25–30000), 5=very strong (above uncleaved molecular ion).
For data set [3] the following is noted: 45-minute digestion.
Procedure: as §2, §3, §4, §5
For data set [4] the following is noted: 25% sera, data not shown.
The nature of data set [5]: 25% aqueous pooled mouse serum (Sigma). Conditions: 37° C., up to 8 hours.
A short description of data set [6]: 25% aqueous pooled human serum (Sigma), human 1, approximately 1 year old. Conditions: 37° C., up to 8 hours.
The nature of data set [7]: 25% aqueous pooled human serum (Sigma), human 2, approximately 1 month old. The following applies: 37° C., up to 8 hours.
Where [8] appears, read: read-out: IC50 in μM against Agrobacterium tumefaciens, 30° C., 24 hours, for Peptide 22 original assay (a).
The mark [9] stands for this setting: read-out: IC50 in μM against Bacillus megaterium, 30° C., 24 hours, for Peptide 22 original assay (a).
Setting [10] is: read-out: IC50 in μM against Micrococcus luteus, 30° C., 24 hours, for Peptide 22 original assay (a).
Where [11] appears, read: read-out: IC50 in μM against Salmonella typhimurium, 30° C., 24 hours, for Peptide 22 original assay (a).
The mark [12] stands for this setting: human 1 serum (approximately 1 year old).
Where [13] appears, read: human 2 serum (approximately 1 month old).

“Also recorded” adds a separate entry of the source. Read-outs that look alike come from different tables or passages of the source. Non-standard residues stand in square brackets, D forms with d. Residues, ends and D or L forms follow the SMILES beside them. No end group written: not given here. ξ: configuration not given here. Ac6c = NC1(C(=O)O)CCCCC1; Dap = NC[C@H](N)C(=O)O; ξDap = NCC(N)C(=O)O

For orientation: IC50 means the concentration that gives 50% inhibition.

Take PTPPRPIYNRN [Peptide 15]: the IC50 (in [1] (setting [8]); with Bacillus megaterium (setting [9]); in the data set with Escherichia coli D22; with Micrococcus luteus (setting [10]); in the data set with Salmonella typhimurium (setting [11])) was above 80 µM each time.

On to “VDKGSYLPRPTPPRPIYNRN [Peptide 2, reference compound]”, for which the 50% inhibitory concentration (IC50) in [1] (setting [8]) is 0.3 µM; in the data set on Bacillus megaterium (setting [9]), 40 µM; in the data set with Escherichia coli D22, 0.3 µM; with Micrococcus luteus (setting [10]) it was above 80 µM; with Salmonella typhimurium (setting [11]) it was 2.5 µM.

VDKGSYLPR [Peptide 14]: the 50% inhibitory concentration (IC50) (in [1] (setting [8]); in the data set on Bacillus megaterium (setting [9]); in the data set on Escherichia coli D22; with Micrococcus luteus (setting [10]); with Salmonella typhimurium (setting [11])) was above 80 µM each time.

`CC[C@H](C)[C@H](NC(=O)[C@@H]1CCCN1C(=O)[C@H](CCCNC(=N)N)NC(=O)[C@@H]1CCCN1C(=O)[C@@H]1CCCN1C(=O)[C@@H](NC(=O)[C@@H]1CCCN1C(=O)[C@H](CCCNC(=N)N)NC(=O)[C@@H]1CCCN1C(=O)[C@H](CC(C)C)NC(=O)[C@H](Cc1ccc(O)cc1)NC(=O)[C@H](CO)NC(=O)CNC(=O)[C@H](CCCCN)NC(=O)[C@H](CC(=O)O)NC(=O)[C@@H](NC(=O)[C@H](CCCNC(=N)N)NC(C)=O)C(C)C)[C@@H](C)O)C(=O)N[C@@H](Cc1ccc(O)cc1)C(=O)N[C@@H](CC(N)=O)C(=O)N[C@@H](CCCNC(=N)N)C(=O)N[C@@H](CNC(C)=O)C(N)=O` [Peptide 22] (Ac-RVDKGSYLPRPTPPRPIYNR[Dap](Ac)-NH2): the IC50 in data set [1] is 0.6 µM; in data set [1] (24 h) it was 2.5 µM; in the data set with Bacillus megaterium (Bacillus), 80 µM; with Bacillus megaterium (Bacillus, 24 h), 40 µM; in the data set on Micrococcus luteus it was 10 µM; in the data set with Micrococcus luteus (24 h) it was 10 µM. The half-maximal inhibitory concentration (IC50) is 2.5 µM with Salmonella typhimurium (murium) and 2.5 µM in the data set on Salmonella typhimurium (murium, 24 h). Moreover, the “Degradation product −C1, relative amount” value in data set [2], in data set [3] (setting [12]) and in [3] (setting [13]) was 0 each time. The results for the “Degradation product −C2, relative amount” value in data set [2], in [3] (setting [12]) and in data set [3] (setting [13]) were 2 (2=weak (5–10000)), 5 and 5, respectively. The “Degradation product −C3, relative amount” value is 0 in data set [2], 3 (3=medium (10–15000)) in data set [3] (setting [12]) and 0 in data set [3] (setting [13]). The “Degradation product −C6, relative amount” value in [2], in data set [3] (setting [12]) and in [3] (setting [13]) was 0 throughout. Further, the results for the “Degradation product −N3, C2, relative amount” value in [2], in data set [3] (setting [12]) and in data set [3] (setting [13]) were 0, 1 (1=very weak (below 5000)) and 0, respectively. The “Degradation product −N3, relative amount” value in [2] is given as 0; in data set [3] (setting [12]), 2 (2=weak (5–10000)); in [3] (setting [13]), 2 (2=weak (5–10000)). The “Degradation product −N5, C2, relative amount” value in data set [2] is reported as 0; in data set [3] (setting [12]) it was 2 (2=weak (5–10000)); in [3] (setting [13]), 0. In addition, the “Degradation product −N5, relative amount” value in data set [2] is recorded as 0; in data set [3] (setting [12]) it was 3 (3=medium (10–15000)); in data set [3] (setting [13]), 1 (1=very weak (below 5000)). In [4], the “degradation rate compared with other peptides (in words)” value was “degrades considerably faster than either Peptide 1 or Peptide 21”.

Consider `CC[C@@H](C)[C@@H](NC(=O)[C@H]1CCCN1C(=O)[C@@H](CCCNC(=N)N)NC(=O)[C@H]1CCCN1C(=O)[C@H]1CCCN1C(=O)[C@H](NC(=O)[C@H]1CCCN1C(=O)[C@@H](CCCNC(=N)N)NC(=O)[C@H]1CCCN1C(=O)[C@@H](CC(C)C)NC(=O)[C@@H](Cc1ccc(O)cc1)NC(=O)[C@@H](CO)NC(=O)CNC(=O)[C@@H](CCCCN)NC(=O)[C@@H](CC(=O)O)NC(=O)[C@H](N)C(C)C)[C@H](C)O)C(=O)N[C@H](Cc1ccc(O)cc1)C(=O)N[C@H](CC(N)=O)C(=O)N[C@H](CCCNC(=N)N)C(=O)N[C@H](CC(N)=O)C(N)=O` [Peptide 13] (H-[dV][dD][dK]G[dS][dY][dL][dP][dR][dP][dT][dP][dP][dR][dP][dI][dY][dN][dR][dN]-NH2; N-terminus and C-terminus assumed), for which the IC50 in data set [1] (setting [8]) is above 80 µM; with Bacillus megaterium (setting [9]), above 80 µM; in the data set on Escherichia coli D22, above 80 µM; in the data set on Micrococcus luteus (24 h), 40 µM; with Salmonella typhimurium (setting [11]), above 80 µM.

Turning to “1-aminocyclo-hexane carboxylic acid (Chex)-Pyrrhocoricin-β-acetyl-2,3-diamino propionic amide [Dap(Ac)]”, the cleaved bond result in data set [5] is given as “Asn18-Arg19, 45-minute; also recorded: Ser5-Tyr6, 45-minute”; in [6] it was “Asn18-Arg19, 45-minute; also recorded: Ser5-Tyr6, 45-minute”; in data set [7], “Asn18-Arg19, 45-minute; also recorded: Ser5-Tyr6, 45-minute”. Further, the not cleaved result in data set [5], in [6] and in data set [7] was “−C1 not detected (0) after 45-minute digestion” throughout. Moreover, the fragment found entry in data set [6] is given as “−C3, 45-minute; also recorded: −N5, C2, 45-minute”; in data set [7], “−N5, C2, 45-minute”.

In the case of VDKGSYLPRPTPPRPIYN [Peptide 25], the concentration for half-maximal inhibition (IC50) (in data set [1] (setting [8]); in the data set with Bacillus megaterium (setting [9]); with Escherichia coli D22; in the data set with Micrococcus luteus (setting [10]); with Salmonella typhimurium (setting [11])) was above 80 µM in each case.

In the case of VDKGSYLPRPTPPRPIYNRN, the cleaved bond entry in data set [5] is on record as “Arg19-Asn20, first_seen, 45 minute; also recorded: Asn18-Arg19, 45-minute”; in data set [6] it was “Arg19-Asn20, first_seen, 45 minute; also recorded: Asn18-Arg19, 45-minute; also recorded: Ser5-Tyr6, 45-minute”; in data set [7], “Arg19-Asn20, first_seen, 45 minute; also recorded: Asn18-Arg19, 45-minute”. Further, the fragment found entry in data set [6] was “−C3, 45-minute; also recorded: −C6, 45-minute”.

With `CC[C@H](C)[C@H](NC(=O)[C@@H]1CCCN1C(=O)[C@H](CCCNC(=N)N)NC(=O)[C@@H]1CCCN1C(=O)[C@@H]1CCCN1C(=O)[C@@H](NC(=O)[C@@H]1CCCN1C(=O)[C@H](CCCNC(=N)N)NC(=O)[C@@H]1CCCN1C(=O)[C@H](CC(C)C)NC(=O)[C@H](Cc1ccccc1)NC(=O)[C@H](C)NC(=O)CNC(=O)[C@H](CCCCN)NC(=O)[C@H](CC(=O)O)NC(=O)C1(N)CCCCC1)[C@@H](C)O)C(=O)N[C@@H](Cc1ccc(O)cc1)C(=O)N[C@@H](CC(N)=O)C(=O)N[C@@H](CCCNC(=N)N)C(=O)NC(CNC(C)=O)C(N)=O` (stereo partly shown) [Peptide 23] (H-[Ac6c]DKGAFLPRPTPPRPIYNR[ξDap](Ac)-NH2), the IC50 with Bacillus megaterium (Bacillus, 24 h) stood at 40 µM; with Escherichia coli D22 it was 20 µM; in the data set on Micrococcus luteus (24 h), 5 µM.

(Values after US7015309B1 (The Wistar Institute of Anatomy and Biology, priority 1999, dated 2006).)
